Assay: Stability study at 40° C./75% RH (appearance; potency by HPLC)
Format: physicochemical
Description: All the vials were sealed with HPLC vial cap. The Time 0 samples were in −20° C. freezer and all other samples in 40° C./75% RH chamber. […] After appropriate dilution, analyzed the samples by HPLC according to the method below:
The standard stock solution of Compound 1 was prepared by dissolving 1.18 mg Compound 1 with 25 ml mixture of acetonitrile and water (acetonitrile:water=1:1). The stock solution was serially further diluted with a dilution factor of 2 to obtain a standard calibration curve.

Physical state on storage (40° C./75% RH, 12 weeks): became an oil
Physical state on storage (40° C./75% RH, within hours): turns into oil
Appearance (Day 1, 40° C./75% RH): Oil
Appearance (Time 0, sample kept in −20° C. freezer): White
Appearance (Week 1, 40° C./75% RH): Oil
Appearance (Week 2, 40° C./75% RH): Oil
Appearance (Week 4, 40° C./75% RH): Oil
Appearance (Week 8, 40° C./75% RH): Oil
Appearance (Week 12, 40° C./75% RH): Oil
Potency loss (end of the 12-week study, 40° C./75% RH, HPLC): about 20%
Structure (SMILES): NC(=O)CCC/C=C\C[C@@H]1[C@@H](/C=C/[C@@H](O)CCc2cc(Cl)sc2Cl)[C@H](O)C[C@@H]1O [Compound 1, (Z)-7-((1R,2R,3R,5S)-2-((S,E)-5-(2,5-dichlorothiophen-3-yl)-3-hydroxypent-1-en-1-yl)-3,5-dihydroxycyclopentyl)hept-5-enamide]
